Reference: patent publication US20030104945A1, “2,4-Diamino-1,3,5-triazines, their preparation, and their use as herbicides and plant growth regulators” (priority 2001, published 2003)

What was measured:
Format in all cases: in vivo
[1] = tested on: harmful plants such as Stellaria media, Lolium multiflorum, Amaranthus retroflexus, Sinapis alba, Avena sativa and Setaria viridis; experiment: Pre-emergence herbicidal action (greenhouse pot test); conditions: application rate of 1 kg or less active substance per hectare, scored after 3 to 4 weeks vs untreated controls
From the text: Seeds and rhizome sections of monocotyledonous and dicotyledonous harmful plants are placed in sandy loam in plastic pots and covered with soil. The compounds according to the invention which are formulated in the form of wettable powders or emulsion concentrates at various rates, are then applied to the surface of the covering soil as aqueous suspension or emulsion at an application rate of 600 to 800 l of water per ha (converted).
After the treatment, the pots are placed in the greenhouse and kept under good growth conditions for the weeds. Visual scoring of the plant damage or the adverse effect on emergence is done after the test plants have emerged after an experimental period of 3 to 4 weeks in comparison with untreated controls.

[2] = tested on: harmful plants such as Sinapis alba, Echinochloa crus-galli, Lolium multiflorum, Stellaria media, Cyperus iria, Amaranthus retroflexus, Setaria viridus and …; experiment: Post-emergence herbicidal action (greenhouse pot test); conditions: three-leaf stage, application rate of 1 kg and less of active substance per hectare, scored after approx. 3 to 4 weeks vs untreated controls
Description: Seeds or rhizome sections of monocotyledonous and dicotyledonous weeds are placed in sandy loam soil in plastic pots, covered with soil and grown in the greenhouse under good growth conditions. Three weeks after sowing, the experimental plants are treated at the three-leaf stage. The compounds according to the invention, which are formulated as wettable powders or as emulsion concentrates, are sprayed at various rates onto the green plant organs at an application rate of 600 to 800 l of water per ha (converted). After the experimental plants have remained in the greenhouse for approx. 3 to 4 weeks under optimal growth conditions, the effect of the compositions is scored visually in comparison with untreated controls. The substances according to the invention also have a good herbicidal action against a broad spectrum of economically important grass weeds and broad-leaved weeds when applied post-emergence.

[3] = tested on: harmful plants which are typical of rice crops such as, for example, Cyperus monti, Echinochloa crus-galli and Sagittaria pygmaea; experiment: Activity against harmful plants in rice (paddy rice conditions); conditions: poured into paddy water at various dosages; scored about three weeks after application vs untreated controls; also: test concentration or dose not given here
Description: Transplanted and seeded rice and typical grass weeds and broad-leaved weeds in rice crops are grown in the greenhouse under paddy rice conditions (depth of the paddy water: 2-3 cm) in sealed plastic pots until they have reached the three-leaf stage (Echinochloa crus-galli 1.5-leaf). They are then treated with the compounds according to the invention. To this end, the formulated active substances are suspended, dissolved or emulsified in water and the product is poured into the paddy water of the test plants at various dosages. After the treatment has been carried out thus, the test plants are placed in the greenhouse under optimal growth conditions and kept like this over the entire experimental period.
About three weeks after application, the evaluation is carried out by is of visually scoring the plant damage in comparison with untreated controls.

CCC(Nc1nc(N)nc(C(C)C)n1)[C@@H]1C[C@H]1c1ccccc1 (relative stereo) [Example 2-2]
very good herbicidal activity: herbicidal activity, visual scoring of plant damage or adverse effect on emergence [1] | herbicidal activity, visual scoring [2] | herbicidal activity, visual scoring of plant damage [3]

CC(C)c1nc(N)nc(NC(C2CC2)[C@@H]2C[C@H]2c2ccccc2)n1 (relative stereo) [Example 3-2]
very good herbicidal activity: herbicidal activity, visual scoring of plant damage or adverse effect on emergence [1] | herbicidal activity, visual scoring [2] | herbicidal activity, visual scoring of plant damage [3]

CCC(F)(CC)c1nc(N)nc(NC(C2CCC2)[C@@H]2C[C@H]2c2ccccc2)n1 (relative stereo) [Example 4-2]
very good herbicidal activity: herbicidal activity, visual scoring of plant damage or adverse effect on emergence [1] | herbicidal activity, visual scoring [2] | herbicidal activity, visual scoring of plant damage [3]

CCC(F)c1nc(N)nc(NC(CC)[C@@H]2C[C@H]2c2ccccc2)n1 (relative stereo) [Example 2-8]
very good herbicidal activity: herbicidal activity, visual scoring of plant damage or adverse effect on emergence [1] | herbicidal activity, visual scoring [2] | herbicidal activity, visual scoring of plant damage [3]

CC(C)(F)c1nc(N)nc(NC(CC2CC2)[C@@H]2C[C@H]2c2ccccc2)n1 (relative stereo) [Example 5-1]
very good herbicidal activity: herbicidal activity, visual scoring of plant damage or adverse effect on emergence [1] | herbicidal activity, visual scoring [2] | herbicidal activity, visual scoring of plant damage [3]

CC(C)(F)c1nc(N)nc(NC(C2CCC2)[C@@H]2C[C@H]2c2cccc(Cl)c2)n1 (relative stereo) [Example 4-28]
very good herbicidal activity: herbicidal activity, visual scoring of plant damage or adverse effect on emergence [1] | herbicidal activity, visual scoring [2] | herbicidal activity, visual scoring of plant damage [3]

CC(C)c1nc(N)nc(NC(C2CCC2)[C@@H]2C[C@H]2c2ccccc2)n1 (relative stereo) [Example 4-27]
very good herbicidal activity: herbicidal activity, visual scoring of plant damage or adverse effect on emergence [1] | herbicidal activity, visual scoring [2] | herbicidal activity, visual scoring of plant damage [3]

CC(C)c1nc(N)nc(NC(C2CC2)[C@@H]2C[C@H]2c2cc(Cl)cc(Cl)c2)n1 (relative stereo) [Example 3-28]
very good herbicidal activity: herbicidal activity, visual scoring of plant damage or adverse effect on emergence [1] | herbicidal activity, visual scoring [2] | herbicidal activity, visual scoring of plant damage [3]

CC(C)(F)c1nc(N)nc(NC(C2CC2)[C@@H]2C[C@H]2c2ccccc2)n1 (relative stereo) [Example 3-1]
very good herbicidal activity: herbicidal activity, visual scoring of plant damage or adverse effect on emergence [1] | herbicidal activity, visual scoring [2] | herbicidal activity, visual scoring of plant damage [3]

CCC(F)c1nc(NC=O)nc(NC(CC2CC2)[C@@H]2C[C@H]2c2ccccc2)n1 (relative stereo) [Example 5-4]
very good herbicidal activity: herbicidal activity, visual scoring of plant damage or adverse effect on emergence [1] | herbicidal activity, visual scoring [2] | herbicidal activity, visual scoring of plant damage [3]

CC(F)c1nc(N)nc(NC(C2CC2)[C@@H]2C[C@H]2c2ccccc2)n1 (relative stereo) [Example 3-3]
very good herbicidal activity: herbicidal activity, visual scoring of plant damage or adverse effect on emergence [1] | herbicidal activity, visual scoring [2] | herbicidal activity, visual scoring of plant damage [3]

CC(Nc1nc(N)nc(C(C)(C)F)n1)[C@@H]1C[C@H]1c1ccccc1 (relative stereo) [Example 1-1]
very good herbicidal activity: herbicidal activity, visual scoring of plant damage or adverse effect on emergence [1] | herbicidal activity, visual scoring [2] | herbicidal activity, visual scoring of plant damage [3]

CCC(F)c1nc(N)nc(NC(C)[C@@H]2C[C@H]2c2ccccc2)n1 (relative stereo) [Example 1-3]
very good herbicidal activity: herbicidal activity, visual scoring of plant damage or adverse effect on emergence [1] | herbicidal activity, visual scoring [2] | herbicidal activity, visual scoring of plant damage [3]

CCc1nc(N)nc(NC(C)[C@@H]2C[C@H]2c2ccccc2)n1 (relative stereo) [Example 1-6]
very good herbicidal activity: herbicidal activity, visual scoring of plant damage or adverse effect on emergence [1] | herbicidal activity, visual scoring [2] | herbicidal activity, visual scoring of plant damage [3]

CC(C)c1nc(N)nc(NC(CC2CC2)[C@@H]2C[C@H]2c2ccccc2)n1 (relative stereo) [Example 5-2]
very good herbicidal activity: herbicidal activity, visual scoring of plant damage or adverse effect on emergence [1] | herbicidal activity, visual scoring [2] | herbicidal activity, visual scoring of plant damage [3]
